From ChEMBL document CHEMBL1128959, “Quinoline-substituted dihydroindoles as cysLT1 (LTD4 receptor) antagonists” (Bioorg Med Chem Lett, 1996)

Experiments:
Cavia porcellus [1] = assay: Inhibition of aerosol administered LTD4-induced airway obstruction after oral administration in guinea pig 2 hr after administration; type: functional
Cavia porcellus [2] = assay: Inhibition of aerosol administered LTD4-induced airway obstruction after oral administration in guinea pig 6 hr after administration; type: functional
[3] = target: T1, Cysteinyl leukotriene receptor 1 (Cavia porcellus) (UniProt Q2NNR5); assay: Compound was tested for its inhibitory activity against specific binding of [3H]LTD4 to guinea pig ileum.; type: tissue-based
T1 sequence (whole entry): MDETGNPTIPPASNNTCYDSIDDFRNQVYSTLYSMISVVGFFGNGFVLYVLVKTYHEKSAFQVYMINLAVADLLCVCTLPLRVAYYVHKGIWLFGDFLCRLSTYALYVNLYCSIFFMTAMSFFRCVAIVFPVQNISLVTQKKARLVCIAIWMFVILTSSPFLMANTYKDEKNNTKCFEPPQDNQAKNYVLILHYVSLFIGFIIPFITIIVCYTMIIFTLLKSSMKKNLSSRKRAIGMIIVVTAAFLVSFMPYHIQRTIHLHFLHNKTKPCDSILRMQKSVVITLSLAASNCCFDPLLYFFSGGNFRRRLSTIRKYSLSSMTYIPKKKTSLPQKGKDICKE

[4] = target: T1, Cysteinyl leukotriene receptor 1 (Cavia porcellus); assay: Compound was tested for its inhibitory activity against specific binding of [3H]LTD4 to guinea pig trachea.; type: tissue-based
[5] = target: T2, Cysteinyl leukotriene receptor 1 (Cavia porcellus, UniProt Q2NNR5); assay: Compound was tested for its inhibitory activity against specific binding of [3H]LTD4 to guinea pig lung membrane.; type: tissue-based
T2 sequence (Q2NNR5 whole entry): T1 sequence (whole entry)

SMILES	pKB [3]	pKB [4]	Ki [5] [nM]	Inhibition (Cavia porcellus [1]) [%]	Inhibition (Cavia porcellus [2]) [%]
Clc1ccc2ccc(/C=C/c3cccc(Cn4ccc5cccc(CCc6nnn[nH]6)c54)c3)nc2c1	–	–	–	69	21
C(=C\c1ccc2ccccc2n1)/c1cccc(CN2CCc3cccc(CCc4nnn[nH]4)c32)c1	8.6	–	–	–	–
Clc1ccc2ccc(COc3ccc(Cn4ccc5cccc(CCc6nnn[nH]6)c54)cc3)nc2c1	–	–	–	16	–
Clc1ccc2ccc(/C=C/c3ccc(CN4CCc5cccc(CCc6nnn[nH]6)c54)cc3)nc2c1	8.6	–	31.6	–	–
c1cc(CCc2nnn[nH]2)c2c(c1)CCN2Cc1ccc(OCc2ccc3ccccc3n2)cc1	8.3	7.9	–	–	–
Clc1ccc2ccc(/C=C/c3cccc(CN4CCc5cccc(OCc6nn[nH]n6)c54)c3)nc2c1	8.6	–	5.01	–	–

The next lines start with results.

pKB [3]	pKB [4]	Ki [5] [nM]	SMILES	Inhibition (Cavia porcellus [1]) [%]	Inhibition (Cavia porcellus [2]) [%]
8.6	7	–	Clc1ccc2ccc(/C=C/c3cccc(CN4CCc5cccc(CCc6nnn[nH]6)c54)c3)nc2c1	91	74
8.4	7.8	–	Clc1ccc2ccc(COc3cccc(CN4CCc5cccc(CCc6nnn[nH]6)c54)c3)nc2c1	–	–
8.5	7.6	–	Clc1ccc2ccc(COc3ccc(CN4CCc5cccc(CCc6nnn[nH]6)c54)cc3)nc2c1	51	81
